For experiment [1], the system named is Huh-7. The experiment can be described thus: Antimalarial activity against liver stage Plasmodium berghei infected in human Huh-7 cells assessed as inhibition by bioluminescence assay. In kind it is functional, cell-based.
For experiment [2], the system named is Anopheles gambiae. The experiment can be described thus: Insecticidal in Anopheles gambiae G3 assessed as lethal concentration fed with compound treated human blood at 150 microg/kg administered once. In kind it is functional. To be noted: dose 150 µg/kg.
Experiment [3] deals with Huh-7. The experiment can be described thus: Antiplasmodial activity against liver stage Plasmodium berghei infected in human Huh-7 cells assessed as inhibition of parasite infection incubated for 48 hrs by bioluminescence assay. In kind it is functional, cell-based.
The subject of experiment [4] is Plasmodium falciparum. The experiment can be described thus: Antimalarial activity against asexual blood stage mefloquine-resistant Plasmodium falciparum Dd2 assessed as parasite growth inhibition by SYBR Green staining based fluorescence analysis. It counts as functional, organism-based.
Experiment [5] relates to Plasmodium vivax. The experiment can be described thus: Antimalarial activity against Plasmodium vivax assessed as inhibition of sporogony in Anopheles sp. mosquito fed with blood containing plasma isolated from compound treated parasite-infected human observed after 7 days. It counts as functional, organism-based.
A short description of experiment [6]: Antimalarial activity against Plasmodium cynomolgi infected in rhesus macaque hepatocytes assessed as inhibition of liver-stage schizonts by Giemsa staining based microscopic analysis. It counts as functional, cell-based, Macaca mulatta. The settings on record: hepatocyte.
Experiment [7] concerns Plasmodium falciparum. Nature of the experiment: Antimalarial activity against asexual blood stage chloroquine-sensitive Plasmodium falciparum 3d7 assessed as parasite growth inhibition by SYBR Green staining based fluorescence analysis. In kind it is functional, organism-based.
In experiment [8] the test system is Plasmodium falciparum. Nature of the experiment: Antimalarial activity against asexual blood stage chloroquine-resistant Plasmodium falciparum Dd2 assessed as parasite growth inhibition by SYBR Green staining based fluorescence analysis. In kind it is functional, organism-based.
In experiment [9] the test system is Plasmodium falciparum. The experiment can be described thus: Antimalarial activity against Plasmodium falciparum late stage IV-V gametocytes assessed as parasite growth inhibition incubated for 48 hrs by BacTiterGlo assay. It counts as functional, organism-based.
The subject of experiment [10] is Plasmodium falciparum. The experiment can be described thus: Antiplasmodial activity against asexual blood stage Plasmodium falciparum 3d7 assessed as parasite growth inhibition incubated for 48 hrs by bioluminescence assay. It counts as functional, organism-based.
Experiment [11] deals with Plasmodium falciparum. Nature of the experiment: Antimalarial activity against asexual blood stage Plasmodium falciparum assessed as parasite growth inhibition incubated for 72 hrs by HRP2 - ELISA. In kind it is functional, organism-based.
Experiment [12] concerns Culex pipiens. Nature of the experiment: Insecticidal in Culex pipiens larvae measured after 48 hrs. In kind it is functional.
Experiment [13] deals with Aedes aegypti. Nature of the experiment: Insecticidal in Aedes aegypti larvae measured after 48 hrs. In kind it is functional.
Experiment [14] concerns Anopheles stephensi. The experiment can be described thus: Insecticidal in Anopheles stephensi larvae measured after 48 hrs. In kind it is functional.
Experiment [15] relates to Anopheles gambiae. Nature of the experiment: Insecticidal in Anopheles gambiae G3 assessed as sublethal dose re-blood fed on human arm. In kind it is functional.

pIC50: −log10 of the molar value. Values after ≈ are worked out from the molar mass of the structure shown.

Take `COc1cc(NC(C)CCCN)c2ncccc2c1` (configuration not stated) [PRIMAQUINE]: in experiment [1] (Homo sapiens, Huh-7), the pIC50 was 5.62.
Regarding `C=C(C)[C@H]1C(=O)c2c3c(cc4c5c(n1c24)C[C@@]1(C)C5CC[C@H]2[C@](C)(/C=C/C=C(\C)C(=O)NC(C)(C)C)[C@@H](O)CC[C@@]21C)C1=CC(C)(C)OC(C)(C)C1[C@@H]3O` (some centres not stated), the LC50 in experiment [2] worked out at 0.76 µg/mL (≈ 1.03 µM).
For the compound IVERMECTIN, the pIC50 in experiment [3] is 5.68; in experiment [4], 5.72; in experiment [1] (huh-7), 5.68; in experiment [6], 4.98; in [7], 5.81; in experiment [8], 5.55. Besides, the pIC50 in experiment [9] was 6.30; in [10], 5.81; in experiment [11], 7.00. Further, the IC50 in [5] was 0.00568 µg/mL.
Take `CO[C@H]1C[C@H](O[C@H]2[C@H](C)O[C@@H](O[C@@H]3/C(C)=C/C[C@@H]4C[C@@H](C[C@]5(C=C[C@H](C)[C@@H](C(C)C)O5)O4)OC(=O)[C@@H]4C=C(C)[C@@H](O)[C@H]5OC/C(=C\C=C\[C@@H]3C)[C@]54O)C[C@@H]2OC)O[C@@H](C)[C@@H]1O` [ABAMECTIN COMPONENT B1B]: the LC50 in [12] came out at 2.42 ppb; in experiment [13], 10.4 ppb; in [14], 2.9 ppb.
For the compound `CCN(Cc1ccc(Cl)nc1)/C(=C/[N+](=O)[O-])NC` [NITENPYRAM], the LC25 in experiment [15] worked out at 0.07865 µg/mL (≈ 0.291 µM). The LC50 in [2] was determined as 0.111 µg/mL (≈ 0.41 µM).

In general, pIC50 refers to the IC50 on a negative log10 scale, so that one unit is a factor of ten. One may read the IC50 as the point on the concentration scale where inhibition reaches its midpoint.

Source of the values: ChEMBL document CHEMBL5226321, “Ivermectin: A Promising Therapeutic for Fighting Malaria. Current Status and Perspective” (J Med Chem, 2021).
